Reference: patent publication US7550455B2, “8-(piperazin-1yl)- and 8-([1,4]diazepan-1yl)-xanthines, the preparation thereof and their use as pharmaceutical composition” (Boehringer Ingelheim International GmbH, priority 2003, dated 2009)
pIC50: −log10 of the molar value.

What was measured:
[1] = target: T1, DPP-IV (Homo sapiens, UniProt P27487); assay: DPP-IV assay with Caco-2 cell extract as DPP-IV source; format: biochemical; conditions: extract of human colon carcinoma cell line Caco-2, AFC substrate 100 μM, 60 minutes, room temperature; read-out: DPP IV inhibition IC50
T1 construct: The cell extract was obtained from the cells solubilized in a buffer; endogenous in cells; host or cells: Caco-2 (human colon carcinoma), differentiated to induce DPP-IV expression; Nonidet-P40 solubilized extract
Procedure: The ability of the substances and their corresponding salts to inhibit DPP-IV activity can be shown in a test set-up in which an extract of the human colon carcinoma cell line Caco-2 is utilized as the DPP-IV source. […] The cell extract was obtained from the cells solubilized in a buffer (10 mM tris HCl, 0.15 M NaCl, 0.04 t.i.u. aprotinin, 0.5% Nonidet-P40, pH 8.0) by centrifugation at 35000 g for 30 minutes at 4° C. (for the removal of cell debris).
The DPP-IV assay was carried out as follows:
50 μl of substrate solution (AFC; AFC is amido-4-trifluoromethylcoumarin), final concentration 100 μM, were introduced into black microtitre plates. 20 μl of assay buffer (final concentrations 50 mM tris HCl pH 7.8, 50 mM NaCl, 1% DMSO) were pipetted in. The reaction was started by addition of 30 μl of solubilized Caco-2 protein (final concentration 0.14 μg of protein per well). […] The reaction was carried out at room temperature; the incubation period was 60 minutes. […] Blank values (corresponding to 0% activity) were obtained in batches without Caco-2 protein (volumes replaced by assay buffer), control values (corresponding to 100% activity) were obtained in batches without addition of substance. […]

[2] = system: rats; assay: Tolerability after oral administration to rats (behaviour); format: in vivo; conditions: oral administration of 10 mg/kg

T1 sequence (P27487 whole entry): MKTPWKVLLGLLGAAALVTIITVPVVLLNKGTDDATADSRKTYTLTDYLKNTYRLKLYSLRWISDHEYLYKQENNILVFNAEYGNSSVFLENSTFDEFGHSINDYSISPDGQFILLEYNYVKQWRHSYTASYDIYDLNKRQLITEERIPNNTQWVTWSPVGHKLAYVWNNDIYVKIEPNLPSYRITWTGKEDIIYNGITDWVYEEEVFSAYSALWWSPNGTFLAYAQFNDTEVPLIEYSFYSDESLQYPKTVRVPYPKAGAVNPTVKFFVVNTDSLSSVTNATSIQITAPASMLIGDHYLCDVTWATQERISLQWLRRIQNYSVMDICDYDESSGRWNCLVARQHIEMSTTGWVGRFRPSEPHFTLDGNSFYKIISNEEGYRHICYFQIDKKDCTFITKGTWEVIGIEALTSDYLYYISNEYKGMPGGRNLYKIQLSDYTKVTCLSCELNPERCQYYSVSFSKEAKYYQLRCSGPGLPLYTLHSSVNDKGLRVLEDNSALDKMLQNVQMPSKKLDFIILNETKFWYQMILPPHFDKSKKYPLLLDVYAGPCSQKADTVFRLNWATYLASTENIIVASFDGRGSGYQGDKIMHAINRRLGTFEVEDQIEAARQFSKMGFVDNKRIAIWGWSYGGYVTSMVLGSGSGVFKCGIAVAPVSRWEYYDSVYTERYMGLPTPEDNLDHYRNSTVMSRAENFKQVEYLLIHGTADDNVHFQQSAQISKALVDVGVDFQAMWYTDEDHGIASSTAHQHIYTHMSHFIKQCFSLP

Which results are given for CC#CCn1c(N2CCCNCC2)nc2c1c(=O)n(Cc1nc(C)c3ccccc3n1)c(=O)n2C [1(3), 1-[(4-Methylquinazolin-2-yl)methyl]-3-methyl-7-(2-butyn-1-yl)-8-([1,4]diazepan-1-yl)xanthine]?
pIC50 [1]: 8.22; melting point: 188 to 190 °C

Which melting point does the source give for CC#CCn1c(N2CCCNCC2)nc2c1c(=O)n(Cc1nc3ccccc3c3ccccc13)c(=O)n2C [Example 1(5), 1-[(Phenanthridin-6-yl)methyl]-3-methyl-7-(2-butyn-1-yl)-8-([1,4]diazepan-1-yl)-xanthine] here?
Its melting point is 223 to 225 °C.

With CC#CCn1c(N2CCCNCC2)nc2c1c(=O)n(Cc1nc(C)cc3ccccc13)c(=O)n2C [1(2), 1-[(3-Methylisoquinolin-1-yl)methyl]-3-methyl-7-(2-butyn-1-yl)-8-([1,4]diazepan-1-yl)xanthine] as the compound, how does the pIC50 [1] read?
Its pIC50 is 8.05.

With CC#CCn1c(N2CCNCC2)nc2c1c(=O)n(Cc1nc(C)cc3ccccc13)c(=O)n2C [1(1), 1-[(3-Methylisoquinolin-1-yl)methyl]-3-methyl-7-(2-butyn-1-yl)-8-(piperazin-1-yl)-xanthine] as the compound, how does the pIC50 [1] read?
Its pIC50 is 7.77.

Which “changes in the behaviour of the animals” value [2] does the source give for CC#CCn1c(N2CCNCC2)nc2c1c(=O)n(Cc1nc(C)c3ccccc3n1)c(=O)n2C [Example 1, 1-[(4-Methylquinazolin-2-yl)methyl]-3-methyl-7-(2-butyn-1-yl)-8-(piperazin-1-yl)-xanthine] here?
Its value is “not possible to observe any changes in the behaviour of the animals”.
